This is an account of results in ChEMBL document CHEMBL4219187, “A new target for Alzheimer's disease: A small molecule SERCA activator is neuroprotective in vitro and improves memory and cognition in APP/PS1 mice” (Bioorg Med Chem Lett, 2018).

Data set [1] concerns Mus musculus. In words: Toxicity in mouse at 50 mg/kg, po. Type of data set: organism-based. To be noted: in vivo.
Data set [2] is described as follows: Half life in human microsomes. Type of data set: ADME, Microsome.
Data set [3] has as its system Mus musculus. In words: Cognition enhancement activity in APPSWE/PSEN1dE9 double-transgenic mouse model of Alzheimer's disease assessed as decrease in total swim distance for hidden platform at 10 mg/kg, ip administered daily for 5 days per week for 4 weeks by Morris water maze test. Type of data set: functional, organism-based.
Data set [4] can be described thus: Half life in human hepatocytes. Type of data set: ADME, cell-based, Hepatocyte.
A further data set concerns HeLa. In words: Activation of SERCA in human HeLa cells assessed as protection against thapsigargin induced depletion of ER calcium stores at 10 uM up to 150 secs by cameleon plasmid-based fluorescence assay. Type of data set: cell-based.
In data set [5] the test system is Mus musculus. Put plainly: Antialzheimer activity in APPSWE/PSEN1dE9 double-transgenic mouse model of Alzheimer's disease assessed as decrease in impairment of motor coordination at 10 mg/kg, ip administered daily for 5 days per week for 4 weeks by rotarod test. Type of data set: functional, organism-based. Background: In the rotarod test animals must keep their balance on a rotating rod.

The nature of data set [6]: Ratio of drug level in brain to plasma in mouse measured at 1 hr post dose. Type of data set: ADME, cell-free. As to conditions: brain and plasma, read-out: BPR.
The nature of data set [7]: Clearance in mouse at 2 mg/kg, po. Type of data set: ADME, organism-based. To be noted: in vivo.
Data set [8] concerns Mus musculus. In words: Antidepressant activity in APPSWE/PSEN1dE9 double-transgenic mouse model of Alzheimer's disease assessed as reduction in immobility time at 10 mg/kg, ip administered daily for 5 days per week for 4 weeks by tail suspension test. Type of data set: functional, organism-based.
The nature of data set [9]: Inhibition of CYP450 (unknown origin) up to 5 uM. Type of data set: ADME. To be noted: human.
Data set [10] deals with Voltage-gated inwardly rectifying potassium channel KCNH2 (Homo sapiens, UniProt Q12809). In words: Inhibition of human ERG up to 10 uM.
A short description of data set [11]: Half life in mouse hepatocytes. Type of data set: ADME, cell-based, Hepatocyte.
Data set [12] is described as follows: Half life in mouse plasma. Type of data set: ADME, cell-free.
A short description of data set [13]: Oral bioavailability in mouse at 50 mg/kg. Type of data set: ADME, organism-based. As to conditions: in vivo.
Another data set is filed under the species Rattus norvegicus. Put plainly: Cytoprotection against thapsigargin induced cell death in rat CSM14.1 cells assessed as increase in cell viability preincubated for 2 hrs followed by thapsigargin induction measured after 20 hrs by ATPlite assay. Type of data set: functional, cell-based. In general terms: ATP-based viability assays read luminescence as a measure of living cells.

The nature of data set [14]: Half life in mouse microsomes. Type of data set: ADME, Microsome.
Data set [15] can be described thus: Half life in human plasma. Type of data set: ADME, cell-free.
Data set [16] can be described thus: Cytotoxicity against rat CSM14.1 cells assessed as cell viability after 20 hrs by ATPlite assay relative to control. Type of data set: cell-based. To be noted: read-out: Activity.

The half-life is the time in which the quantity being followed falls by half. Low values mean fast loss, high ones slow loss. By CL/F is commonly meant the apparent clearance, not corrected for the fraction that reaches the circulation. The term bioavailability denotes dose-corrected exposure relative to a reference, in per cent. A higher bioavailability goes with much systemic uptake.

Structures are written as SMILES. The source made the active and inactive calls. No cut-off for these calls is given here.

Voltage-gated inwardly rectifying potassium channel KCNH2, sequence (Q12809 whole entry): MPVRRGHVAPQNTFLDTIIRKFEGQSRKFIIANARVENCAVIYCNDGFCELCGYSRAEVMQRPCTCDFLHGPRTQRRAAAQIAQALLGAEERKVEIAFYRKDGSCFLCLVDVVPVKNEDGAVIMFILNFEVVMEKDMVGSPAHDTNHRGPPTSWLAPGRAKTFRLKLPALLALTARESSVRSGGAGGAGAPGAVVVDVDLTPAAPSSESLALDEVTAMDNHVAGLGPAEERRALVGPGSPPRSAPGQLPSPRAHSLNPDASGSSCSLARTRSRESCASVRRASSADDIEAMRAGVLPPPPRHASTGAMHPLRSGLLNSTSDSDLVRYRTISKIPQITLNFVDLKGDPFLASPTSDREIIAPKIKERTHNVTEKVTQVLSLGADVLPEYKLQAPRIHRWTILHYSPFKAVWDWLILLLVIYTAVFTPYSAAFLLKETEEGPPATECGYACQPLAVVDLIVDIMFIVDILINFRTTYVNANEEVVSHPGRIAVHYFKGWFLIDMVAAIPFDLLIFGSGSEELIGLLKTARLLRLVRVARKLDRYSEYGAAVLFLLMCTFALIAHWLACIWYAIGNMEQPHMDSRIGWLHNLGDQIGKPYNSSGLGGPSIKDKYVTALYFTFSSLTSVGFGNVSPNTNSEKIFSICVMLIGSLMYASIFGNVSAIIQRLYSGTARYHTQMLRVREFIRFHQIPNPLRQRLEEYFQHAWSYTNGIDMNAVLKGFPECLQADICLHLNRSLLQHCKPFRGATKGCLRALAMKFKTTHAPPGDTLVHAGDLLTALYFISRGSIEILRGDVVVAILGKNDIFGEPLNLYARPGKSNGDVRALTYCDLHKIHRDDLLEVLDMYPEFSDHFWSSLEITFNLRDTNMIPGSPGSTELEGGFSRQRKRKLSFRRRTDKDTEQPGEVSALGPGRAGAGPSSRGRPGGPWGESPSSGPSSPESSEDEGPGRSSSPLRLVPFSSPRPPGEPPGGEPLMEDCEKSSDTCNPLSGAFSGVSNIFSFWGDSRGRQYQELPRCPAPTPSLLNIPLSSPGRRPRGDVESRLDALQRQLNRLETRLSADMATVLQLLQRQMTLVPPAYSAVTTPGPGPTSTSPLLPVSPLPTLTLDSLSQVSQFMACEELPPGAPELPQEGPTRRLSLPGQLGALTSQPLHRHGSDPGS

As for `Cc1ccc2cccc(NC(=O)c3ccc(OC(C)C)cc3)c2n1`, the results for the Activity entry with Mus musculus [1] and in the data set filed under Rattus norvegicus were “Non-Toxic” and “Dose-dependent effect”, respectively. Further, the half-life is 15 min in data set [2]; 45 min in [4]; 2 min in data set [11]; 140 min in [12]; 2 min in [14]; above 300 min in data set [15]. In addition, the outcome with Mus musculus [3], in the data set with HeLa, with Mus musculus [5] and in the data set with Mus musculus [8] was Active. For the same compound, the Kp at 1 h in [6] was 3. This compound yielded a CL/F in [7] of 15.1 L/h/kg. In addition, the “inhibition (INH)” value is “Not Active” in [9] and “Active” in data set [10]. Moreover, the bioavailability in [13] worked out at 37%. Besides, in data set [16], the viability at 20 h was found to be 100%.
